Data: patent US20120184624A1, “Treatment of Alzheimer's Disease” (priority 2010, published 2012)

Assays:
ACC = assay: Phosphorylation of the AMPK target ACC (Ser79) in primary cortical neurons; format: cell-based, mouse; settings: 5 mM AICAR, increasing time intervals
Description: (§1) Primary cortical neurons were isolated from brain of wt or transgenic (Mapt^tm1(EGFP)klt Tg(MAPT)8cPdav/J; Jackson Laboratory) embryos at day 14.5. Cortices were collected in DMEM (Lonza) and cells were dissociated by incubation with Trypsin/EDTA for 6.5 min at 37° C. Cells were then diluted in neurobasal medium (Gibco-BRL) containing B27 supplement (Gibco BRL). Cells were plated at a density of 4.0×10^5 onto 0.2 mg/ml poly-D-lysin (Sigma) and 2 μg/ml Laminin (Sigma) coated 12 well plates. Neurons were incubated at 37° C. with 8% CO2. One hour after seeding a complete change of medium was performed. Later on, each 96 hours half volumes of the medium were replaced by fresh medium. After 7 days in culture neurons were treated.
Cells were incubated with the respective substances as follows: Metformin (Sigma) at final concentrations up to 2.5 mM for 1 to >24 hours, okadaic acid (Sigma) at final concentrations from 1 nM to 10 nM for 4 h, Fostricien (Sigma) at final concentration of 1 μM for 4 h and AICAR (cell signalling) at final concentration of 5 mM for 0.5-16 h. For cell treatment without insulin, medium containing B27+insulin supplement was replaced with medium containing B27-supplement without insulin 24 h before treatment. […]
Cell pellets were homogenized in Magic-Mix (48% UREA, 15 mM Tris-HCL pH 7.5, 8.7% Glycerin, 1% SDS, 0.004% Bromphenolblue, 143 mM Mercaptoethanol), sonicated and boiled for 5 min at 95° C. […] Antibodies used in this study were purchased from the following companies: Tau-5 (Biosource), anti-human PHF pSer202 (Thermo scientific), Tau pSer356 (Biosource), Tau pSer262 (Biosource), Tau pSer396 (Sigma), Actin (Sigma), ACC (cell signalling), ACC pSer79 (cell signalling), phospho-S6 ribosomal protein pSer241/244 (cell signalling), p70S6 Kinase (cell signalling), p70S6K pThr421/pSer424 (cell signalling), mTOR (cell signalling), AMPK (cell signallling, AMPK pThr172 (cell singnaling), HRP-anti-rabbit (Amersham), HRP-anti-mouse (Dianova). The resulting bands were quantified using Imagequant5.2. […]

tau = format: cell-based, mouse
Description: as §1
Cells were incubated with the respective substances as follows: Metformin (Sigma) at final concentrations up to 2.5 mM for 1 to >24 hours, okadaic acid (Sigma) at final concentrations from 1 nM to 10 nM for 4 h, Fostricien (Sigma) at final concentration of 1 μM for 4 h and AICAR (cell signalling) at final concentration of 5 mM for 0.5-16 h. For cell treatment without insulin, medium containing B27+insulin supplement was replaced with medium containing B27-supplement without insulin 24 h before treatment. 3 groups of 2 mice were treated with or without 5 mg/l metformin in the drinking water.
Cell pellets were homogenized in Magic-Mix (48% UREA, 15 mM Tris-HCL pH 7.5, 8.7% Glycerin, 1% SDS, 0.004% Bromphenolblue, 143 mM Mercaptoethanol), sonicated and boiled for 5 min at 95° C. Proteins were resolved on 8 or 10% SDS gels and blotted onto PVDF-membranes (Roche). Antibodies used in this study were purchased from the following companies: Tau-5 (Biosource), anti-human PHF pSer202 (Thermo scientific), Tau pSer356 (Biosource), Tau pSer262 (Biosource), Tau pSer396 (Sigma), Actin (Sigma), ACC (cell signalling), ACC pSer79 (cell signalling), phospho-S6 ribosomal protein pSer241/244 (cell signalling), p70S6 Kinase (cell signalling), p70S6K pThr421/pSer424 (cell signalling), mTOR (cell signalling), AMPK (cell signallling, AMPK pThr172 (cell singnaling), HRP-anti-rabbit (Amersham), HRP-anti-mouse (Dianova). The resulting bands were quantified using Imagequant5.2. Statistical analyses were performed using SigmaStat software package (v 3.0, SPSS, USA). For timecourse or dose-response studies, data were analyses by one-way ANOVA with post hoc Dunnett's or Bonferonni test to accommodate for multiple comparisons. A Student's t-test was used for two-group comparisons, as appropriate.

Row | Compound | ACC phosphorylation (Ser79) (ACC) | phosphorylation pattern of tau (PP2A sensitive site) (tau; 5 mM AICAR, first 16 hours of treatment) | phosphorylation of tau (Ser202) (tau; AICAR, first 8 hours of treatment) | phosphorylation at Ser202 (tau; 1 μM fostriecin alone over 4 hours)
1 | NC(=O)c1ncn([C@@H]2O[C@H](CO)[C@@H](O)[C@H]2O)c1N [AICAR] | significantly increased | did not find a significant effect | did not see an effect | –
2 | C[C@@](O)(/C=C/[C@H]1CC=CC(=O)O1)[C@@H](C[C@@H](O)\C=C/C=C\C=C\CO)OP(=O)(O)O [fostriecin] | – | – | – | increased
